From ChEMBL document CHEMBL1201862, “PubChem BioAssay data set” (2004)
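All cell lines were grown in 96-well plates and treated with compound for 48 hours. The concentration for 50% growth inhibition is given as GI50.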 The source made the active and inactive calls. Cut-off read from the data, not from the text of the source: active = GI50 up to about 1.1 µM and inactive = higher. Where a SMILES comes first, the peptide text is derived from it. The star is where a group is joined. X33 = O=C(c1ccc(-c2ccc(Cl)cc2Cl)o1)*

Experiments:
Test in all cases: NCI anticancer screen, dose series, 48 h
786-0 = system: 786-0
A498 = system: A498
A549 = system: A549
ACHN = system: ACHN
BT-549 = system: BT-549
CAKI-1 = system: CAKI-1
CCRF-CEM = system: CCRF-CEM
COLO 205 = system: COLO 205
DU-145 = system: DU-145
EKVX = system: EKVX
HCC 2998 = system: HCC 2998
HCT-116 = system: HCT-116
HCT-15 = system: HCT-15
HL-60 = system: HL-60
HOP-62 = system: HOP-62
HOP-92 = system: HOP-92
HT-29 = system: HT-29
Hs-578T = system: Hs-578T
IGROV-1 = system: IGROV-1
K562 = system: K562
KM12 = system: KM12
LOX IMVI = system: LOX IMVI
M14 = system: M14
MCF7 = system: MCF7
MDA-MB-231 = system: MDA-MB-231
MDA-MB-435 = system: MDA-MB-435
MDA-N = system: MDA-N
MOLT-4 = system: MOLT-4
Malme-3M = system: Malme-3M
NCI-H226 = system: NCI-H226
NCI-H23 = system: NCI-H23
NCI-H460 = system: NCI-H460
NCI-H522 = system: NCI-H522
NCI/ADR-RES = system: NCI/ADR-RES
OVCAR-3 = system: OVCAR-3
OVCAR-4 = system: OVCAR-4
OVCAR-5 = system: OVCAR-5
OVCAR-8 = system: OVCAR-8
PC-3 = system: PC-3
RPMI-8226 = system: RPMI-8226
RXF 393 = system: RXF 393
SF-268 = system: SF-268
SF-295 = system: SF-295
SF-539 = system: SF-539
SK-MEL-28 = system: SK-MEL-28
SK-MEL-2 = system: SK-MEL-2
SK-MEL-5 = system: SK-MEL-5
SK-OV-3 = system: SK-OV-3
SN12C = system: SN12C
SNB-19 = system: SNB-19
SNB-75 = system: SNB-75
SR = system: SR
SW-620 = system: SW-620
T47D = system: T47D
TK-10 = system: TK-10
U-251 = system: U-251
UACC-257 = system: UACC-257
UACC-62 = system: UACC-62
UO-31 = system: UO-31

Measured: GI50

CCOC(=O)C1CC(C(=O)c2ccccc2)N2c3ccccc3-c3ccccc3C12 (stereo unspecified)
> 100 µM: HCT-15
inactive: 786-0 40.1 µM | A498 > 100 µM | A549 73.6 µM | ACHN > 100 µM | BT-549 57.3 µM | CAKI-1 > 100 µM | CCRF-CEM 28.1 µM | COLO 205 30.2 µM | DU-145 > 100 µM | EKVX > 100 µM | HCC 2998 > 100 µM | HCT-116 30.8 µM | HL-60 10.7 µM | HOP-62 97.1 µM | HOP-92 52.8 µM | HT-29 78.2 µM | Hs-578T 25.9 µM | IGROV-1 37.2 µM | K562 31.6 µM | KM12 48.6 µM | LOX IMVI 65 µM | M14 26.4 µM | MCF7 > 100 µM | MDA-MB-231 41.7 µM | MDA-MB-435 86.7 µM | MDA-N > 100 µM | MOLT-4 52 µM | Malme-3M > 100 µM | NCI-H226 > 100 µM | NCI-H23 > 100 µM | NCI-H460 > 100 µM | NCI-H522 50.9 µM | NCI/ADR-RES 43.2 µM | OVCAR-3 30 µM | OVCAR-4 26.4 µM | OVCAR-5 > 100 µM | OVCAR-8 33.8 µM | PC-3 40.6 µM | RPMI-8226 11.9 µM | RXF 393 29.9 µM | SF-268 74.6 µM | SF-295 82.2 µM | SF-539 > 100 µM | SK-MEL-28 > 100 µM | SK-MEL-2 > 100 µM | SK-MEL-5 45.1 µM | SK-OV-3 > 100 µM | SN12C > 100 µM | SNB-19 > 100 µM | SNB-75 28.1 µM | SR 19.2 µM | SW-620 > 100 µM | T47D 23.6 µM | TK-10 > 100 µM | U-251 30.3 µM | UACC-257 > 100 µM | UACC-62 46.7 µM | UO-31 32.7 µM

Cc1cccc(/N=N/c2ccc(O)c(CN(C)C)c2)c1
11.2 µM: HCT-15
inactive: 786-0 18.9 µM | A498 18.1 µM | A549 32.4 µM | ACHN 8 µM | BT-549 17.2 µM | CAKI-1 20.7 µM | COLO 205 13.2 µM | DU-145 > 10 µM | EKVX 20.3 µM | HCC 2998 16.4 µM | HCT-116 20.5 µM | HL-60 23.4 µM | HOP-62 11.1 µM | HOP-92 6.17 µM | HT-29 17.5 µM | Hs-578T 16 µM | IGROV-1 21.8 µM | K562 3.33 µM | KM12 13.4 µM | LOX IMVI 5.41 µM | M14 27.4 µM | MCF7 39.1 µM | MDA-MB-231 5.6 µM | MDA-MB-435 15.2 µM | MDA-N 27.3 µM | MOLT-4 20 µM | Malme-3M 10 µM | NCI-H226 30.9 µM | NCI-H23 57.8 µM | NCI-H460 16.7 µM | NCI-H522 10.5 µM | NCI/ADR-RES 16.9 µM | OVCAR-3 17.2 µM | OVCAR-4 55.3 µM | OVCAR-5 33.8 µM | OVCAR-8 21.3 µM | PC-3 36.4 µM | RPMI-8226 32 µM | RXF 393 29 µM | SF-268 26.2 µM | SF-295 28.4 µM | SF-539 18.2 µM | SK-MEL-28 19.2 µM | SK-MEL-2 20.7 µM | SK-MEL-5 14 µM | SK-OV-3 41.7 µM | SN12C 62.4 µM | SNB-19 41.9 µM | SNB-75 29 µM | SR 43.1 µM | SW-620 18.2 µM | T47D 11.5 µM | TK-10 22.9 µM | U-251 45.9 µM | UACC-257 17.5 µM | UACC-62 8.95 µM | UO-31 7.35 µM
active: CCRF-CEM 0.0753 µM

Cc1nccn1S(=O)(=O)c1ccc(Cl)cc1
41.6 µM: HCT-15
inactive: 786-0 > 100 µM | A498 36.1 µM | A549 > 100 µM | ACHN 95.9 µM | BT-549 74.5 µM | CAKI-1 42 µM | CCRF-CEM 41 µM | COLO 205 19.8 µM | DU-145 81.8 µM | EKVX 31.3 µM | HCC 2998 29.2 µM | HCT-116 30.5 µM | HL-60 22.9 µM | HOP-62 58.2 µM | HOP-92 16.9 µM | HT-29 35 µM | Hs-578T 44.9 µM | IGROV-1 37.4 µM | K562 37.8 µM | KM12 42.5 µM | LOX IMVI 41.5 µM | M14 41.7 µM | MCF7 45 µM | MDA-MB-231 31.9 µM | MDA-MB-435 22.7 µM | MDA-N 22.2 µM | MOLT-4 56.9 µM | Malme-3M 34.8 µM | NCI-H226 74.8 µM | NCI-H23 39.6 µM | NCI-H460 41.9 µM | NCI-H522 27.9 µM | NCI/ADR-RES 43.6 µM | OVCAR-3 54.8 µM | OVCAR-4 29.5 µM | OVCAR-5 64.6 µM | OVCAR-8 59.2 µM | PC-3 99.8 µM | RPMI-8226 48.6 µM | RXF 393 52 µM | SF-268 47.9 µM | SF-295 67.6 µM | SF-539 32.7 µM | SK-MEL-28 94 µM | SK-MEL-2 72.9 µM | SK-MEL-5 37.4 µM | SK-OV-3 87.5 µM | SN12C 37.8 µM | SNB-19 > 100 µM | SNB-75 57 µM | SR 38 µM | SW-620 65.2 µM | T47D 38 µM | TK-10 72.8 µM | U-251 61.1 µM | UACC-257 42.5 µM | UACC-62 55.6 µM | UO-31 58.3 µM

CCC(C)C(NC(=O)CNC(=O)C(Cc1ccccc1)NC(=O)C1CCCN1C(=O)c1ccc(-c2ccc(Cl)cc2Cl)o1)C(=O)OC (stereo unspecified) (X33-PFGI-OMe; configuration not given here)
43.1 µM: HCT-15
inactive: 786-0 27.1 µM | A498 7.4 µM | A549 23.9 µM | ACHN 33.8 µM | BT-549 92.5 µM | CAKI-1 31 µM | CCRF-CEM 8.09 µM | COLO 205 31.6 µM | DU-145 39.5 µM | EKVX 24.1 µM | HCC 2998 21.3 µM | HCT-116 13.6 µM | HL-60 3.47 µM | HOP-62 31.1 µM | HOP-92 11.2 µM | HT-29 15 µM | Hs-578T 50.2 µM | IGROV-1 19.6 µM | K562 22 µM | KM12 37.5 µM | LOX IMVI 33.3 µM | M14 46.8 µM | MCF7 20.8 µM | MDA-MB-231 24.7 µM | MDA-MB-435 38.9 µM | MDA-N 23.4 µM | MOLT-4 10.6 µM | Malme-3M 53.7 µM | NCI-H226 > 100 µM | NCI-H23 34.1 µM | NCI-H460 15.7 µM | NCI-H522 29.8 µM | NCI/ADR-RES 36.7 µM | OVCAR-3 23.5 µM | OVCAR-4 28.6 µM | OVCAR-5 74.8 µM | OVCAR-8 27.4 µM | PC-3 8 µM | RPMI-8226 14.7 µM | RXF 393 19.4 µM | SF-268 69.2 µM | SF-295 22 µM | SF-539 27.2 µM | SK-MEL-28 27.3 µM | SK-MEL-2 60.5 µM | SK-MEL-5 12.2 µM | SK-OV-3 89.5 µM | SN12C 19.8 µM | SNB-19 48.1 µM | SNB-75 23.6 µM | SR 12.5 µM | SW-620 23 µM | T47D 25.3 µM | TK-10 51.9 µM | U-251 24.5 µM | UACC-257 16.8 µM | UACC-62 25.2 µM | UO-31 36.8 µM
